“Also recorded” adds a separate entry of the source.
Assays:
weeds = assay: Field trial, impact of the adjuvant system on herbicide effectiveness, weeds overall; assay type: in vivo; conditions: compared with the other adjuvant; no weed named; in words
Experimental: (§1) A field trial was conducted in Mississippi, United States, to evaluate the impact of the C16 to C18 fatty acid methyl esters adjuvant system on the effectiveness of several herbicides. Rice, soybeans, cotton, peanut and corn seeds were planted and irrigated on two days after planting. Seven days after planting there was good stand of all of the crops, except only 4 of the 9 rows of rice were visible. The weeds were about 3 centimeters tall at this time. The treatments in Table 2 below were applied 13 days after planting. The rate of each treatment is below in Table 2 and all of the adjuvant systems were mixed with the herbicides at a rate of 1% v/v.
(§2) At the time of treatment: Hemp Sesbania was at the V4 growth stage and from about 3 to 5 about inches tall; Ivyleaf Morningglory was at the V3 growth stage and from about 2 to about 4 inches tall; Common Barnyardgrass was at the V5 growth stage and from about 2.5 to about 6 inches tall; Palmer Amaranth was at the vegetative growth stage and from about 2 to about 7 inches tall; Yellow Nutsedge was at the V8 growth stage and from about 3 to about 6 inches tall; and Broadleaf Signalgrass was at the second true leaf growth stage and from about 2 to about 4 inches tall.
The weeds were evaluated fourteen days after treatment.
(§3) The adjuvant system described in Example 1 above was used as the source of the C16 to C18 fatty acid methyl esters adjuvant system used in this study.

Hemp Sesbania = assay: Field trial, post-emergence weed control, Hemp Sesbania; assay type: in vivo; conditions: compared with the other adjuvant; in words
Experimental: as §1, §2
(§4) The weeds were evaluated fourteen days after treatment. […]

Ivyleaf Morningglory = assay: Field trial, post-emergence weed control, Ivyleaf Morningglory; assay type: in vivo; conditions: compared with the other adjuvant; in words
Experimental: as §1, §2, §4

Common Barnyardgrass = assay: Field trial, post-emergence weed control, Common Barnyardgrass; assay type: in vivo, Echinochloa crus-galli; conditions: compared with the other adjuvant; in words
Experimental: as §1, §2, §4

Broadleaf Signalgrass = assay: Field trial, post-emergence weed control, Broadleaf Signalgrass; assay type: in vivo, Brachiaria platyhylla; conditions: compared with the other adjuvant; in words
Experimental: as §1, §2, §4

Palmer Amaranth = assay: Field trial, post-emergence weed control, Palmer Amaranth; assay type: in vivo; conditions: compared with the other adjuvant; in words
Experimental: as §1, §2, §4

Yellow Nutsedge = assay: Field trial, post-emergence weed control, Yellow Nutsedge; assay type: in vivo, Cyperus esculentus; conditions: compared with the other adjuvant; in words
Experimental: as §1, §2, §4

rice = assay: Field trial, crop phytotoxicity, rice; assay type: in vivo; conditions: compared with the other adjuvant; in words
Experimental: as §1
(§5) At the time of treatment: rice was at the first true leaf growth stage and from about 5 to 7 inches tall; soybeans were at the V2 growth stage and from about 5 to 7 inches tall; cotton was at the V2 growth stage and from about 5 to 7 inches tall; peanut was at the V5 growth stage and from about 3 to 5 inches tall; and corn was at the V3 growth stage and from about 9 to 12 inches tall.
as §3
(§6) In this study, phytotoxicity of the crops was also evaluated.

soybeans = assay: Field trial, crop phytotoxicity, soybeans; assay type: in vivo; conditions: compared with the other adjuvant; in words
Experimental: as §1, §5, §3, §6

cotton = assay: Field trial, crop phytotoxicity, cotton; assay type: in vivo; conditions: compared with the other adjuvant; in words
Experimental: as §1, §5, §3, §6

peanut = assay: Field trial, crop phytotoxicity, peanut; assay type: in vivo; conditions: compared with the other adjuvant; in words
Experimental: as §1, §5, §3, §6

corn = assay: Field trial, crop phytotoxicity, corn; assay type: in vivo; conditions: compared with the other adjuvant; in words
Experimental: as §1, §5, §3, §6

CCOC(=O)C(C)OC(=O)c1cc(Oc2ccc(C(F)(F)F)cc2Cl)ccc1[N+](=O)[O-] (centres unmarked) [lactofen]
Effect of C16 to C18 fatty acid methyl esters adjuvant system on effectiveness/efficacy of the herbicide (weeds overall) (weeds): did not improve the efficacy; also recorded: failed to increase the effectiveness

CCOC(=O)COc1ncccc1Oc1cc(-n2c(=O)cc(C(F)(F)F)n(C)c2=O)c(F)cc1Cl [ethyl [3-[2-chloro-4-fluoro-5-(1-methyl-6-trifluoromethyl-2,4-dioxo-1,2,3,4-tetrahydropyrimidin-3-yl)phenoxy]-2-pyridyloxy]acetate]
Effect of C16 to C18 fatty acid methyl esters adjuvant system on effectiveness on Hemp Sesbania (Hemp Sesbania): did not increase the effectiveness
Effect of C16 to C18 fatty acid methyl esters adjuvant system on effectiveness on Ivyleaf Morningglory (Ivyleaf Morningglory): did not increase the effectiveness
Effect of C16 to C18 fatty acid methyl esters adjuvant system on effectiveness on Common Barnyardgrass (Common Barnyardgrass): increases the effectiveness
Effect of C16 to C18 fatty acid methyl esters adjuvant system on effectiveness on Broadleaf Signalgrass (Broadleaf Signalgrass): increases the effectiveness
Effect of C16 to C18 fatty acid methyl esters adjuvant system on effectiveness on Palmer Amaranth (Palmer Amaranth): did not increase the effectiveness
Effect of C16 to C18 fatty acid methyl esters adjuvant system on effectiveness on Yellow Nutsedge (Yellow Nutsedge): did not increase the effectiveness
Effect of C16 to C18 fatty acid methyl esters adjuvant system on phytotoxicity on rice (rice): increase the phytotoxicity
Effect of C16 to C18 fatty acid methyl esters adjuvant system on phytotoxicity on soybeans (soybeans): did not significantly increase phytotoxicity
Effect of C16 to C18 fatty acid methyl esters adjuvant system on phytotoxicity on cotton (cotton): did not significantly increase phytotoxicity
Effect of C16 to C18 fatty acid methyl esters adjuvant system on phytotoxicity on peanut (peanut): increase the phytotoxicity
Effect of C16 to C18 fatty acid methyl esters adjuvant system on phytotoxicity on corn (corn): did not significantly increase phytotoxicity
Effect of C16 to C18 fatty acid methyl esters adjuvant system on effectiveness/efficacy of the herbicide (weeds overall) (weeds): improved the efficacy

C#CCN1C(=O)COc2cc(F)c(N3C(=O)C4=C(CCCC4)C3=O)cc21 [flumioxazin]
Effect of C16 to C18 fatty acid methyl esters adjuvant system on effectiveness/efficacy of the herbicide (weeds overall) (weeds): did not improve the efficacy; also recorded: failed to increase the effectiveness

From patent publication US10624345B2, “Protoporphyrinogen oxidase inhibitor mixtures” (Valent U.S.A. LLC, priority 2017, dated 2020)
